Measured values taken from patent US20240148821A1, “PHARMACEUTICAL USE OF CYCLIC PEPTIDE COMPOUND” (CHUGAI SEIYAKU KABUSHIKI KAISHA, priority 2021, published 2024).
Numbered stars: 1 amine (or outer) side, 2 acyl side, 3 side chain; on linkers, the order of the positions; unused ones are H or OH. Bridge positions count the residues as written; N and C are the ends. Square brackets hold non-standard residues; d marks the D form. Peptide text beside a SMILES is read from it. * marks the point of attachment. hPhe(3-Cl-4-CF3) = N[C@@H](CCc1ccc(C(F)(F)F)c(Cl)c1)C(=O)O; NMePhe(4-CF3) = CN[C@@H](Cc1ccc(C(F)(F)F)cc1)C(=O)O; hPhe(4-CF3) = N[C@@H](CCc1ccc(C(F)(F)F)cc1)C(=O)O; Pro(cis-4-Ph) = O=C(O)[C@@H]1C[C@H](c2ccccc2)CN1; NMePhe(4-Cl) = CN[C@@H](Cc1ccc(Cl)cc1)C(=O)O; NMePhe(2-Cl) = CN[C@@H](Cc1ccccc1Cl)C(=O)O; NMedβ3hAla = C[C@H](CC(=O)[*:2])N(C)[*:1]; NMeGly(cPent) = CN[C@H](C(=O)O)C1CCCC1; Pro(4,4-F2) = O=C(O)[C@@H]1CC(F)(F)CN1; NMeGly(cBu) = CN[C@H](C(=O)O)C1CCC1; NMeCha = CN[C@@H](CC1CCCCC1)C(=O)O; NMeCba = CN[C@@H](CC1CCC1)C(=O)O; NMeChg = CN[C@H](C(=O)O)C1CCCCC1; NMeI = CC[C@H](C)[C@H](NC)C(=O)O; N(CH2CH2)2CF2 = FC1(F)CCN(*)CC1; NMeD = CN[C@@H](CC(=O)O)C(=O)O; NMeL = CN[C@@H](CC(C)C)C(=O)O; NMeV = CN[C@H](C(=O)O)C(C)C; d(β3hA) = C[C@@H](N)CC(=O)O; NMeA = CN[C@@H](C)C(=O)O; Piperidide = C1CCN(*)CC1; Pyrrolidide = C1CCN(*)C1; dNMeA = CN[C@H](C)C(=O)O; Ac5c = NC1(C(=O)O)CCCC1; Aze = O=C(O)[C@@H]1CCN1; Ac4c = NC1(C(=O)O)CCC1; NBuGly = CCCCNCC(=O)O; Aib = CC(C)(N)C(=O)O; Sar = CNCC(=O)O

The compounds below were run against protein-protein interaction between Kras and SOS1 (biotin-tagged human Kras loaded with GDP, His-tagged human SOS1) (Homo sapiens (Human), UniProt P01116, G12D) (assay: Protein-protein interaction inhibition between Kras and SOS1 (KrasG12D-SOS PPI) using AlphaScreen). Settings: AlphaScreen; biotin-tagged human Kras loaded with GDP, His-tagged human SOS1; read-out: KRAS G12D-SOS PPI IC50.
Format: biochemical

SMILES | IC50 [nM]
CC[C@H](C)[C@@H]1NC(=O)[C@H](CC(C)C)N(C)C(=O)C[C@@H](C(=O)N2CCCCC2)N(C)C(=O)[C@H](C2CCCCC2)N(C)C(=O)C2(CCCC2)NC(=O)[C@@H]2C[C@H](c3ccccc3)CN2C(=O)[C@H](CCc2ccc(C(F)(F)F)c(Cl)c2)NC(=O)CN(C)C(=O)[C@H](CC2CCCCC2)N(C)C(=O)CN(C)C(=O)CN(C)C1=O [Compound 428] ([NMeL]I[Sar][Sar][NMeCha][Sar][hPhe(3-Cl-4-CF3)][Pro(cis-4-Ph)][Ac5c][NMeChg][NMeD]-Piperidide; lactam N-11) | 9.1
CCCCN1CC(=O)N(C)CC(=O)N(C)[C@@H](Cc2ccc(Cl)cc2)C(=O)N(C)CC(=O)N[C@@H](CCc2ccc(C(F)(F)F)cc2)C(=O)N(C)[C@@H](CC(C)C)C(=O)NC(C)(C)C(=O)N(C)[C@@H](CC(C)C)C(=O)N[C@H](C)CC(=O)N(C)[C@@H](C)C(=O)N[C@@H]([C@@H](C)CC)C1=O [Compound 436] (cyclo([Aib][NMeL][d(β3hA)][NMeA]I[NBuGly][Sar][NMePhe(4-Cl)][Sar][hPhe(4-CF3)][NMeL])) | 160
CC[C@H](C)[C@@H]1NC(=O)[C@H](CC(C)C)N(C)C(=O)C[C@@H](C(=O)N2CCCCC2)N(C)C(=O)[C@H](C(C)C)N(C)C(=O)C2(CCCC2)NC(=O)[C@@H]2CCCN2C(=O)[C@H](CCc2ccc(C(F)(F)F)c(Cl)c2)NC(=O)CN(C)C(=O)[C@H](C2CCC2)N(C)C(=O)[C@@H]2CCN2C(=O)[C@H](C)N(C)C1=O [Compound 446] ([NMeL]I[NMeA][Aze][NMeGly(cBu)][Sar][hPhe(3-Cl-4-CF3)]P[Ac5c][NMeV][NMeD]-Piperidide; lactam N-11) | 1.8
CC[C@H](C)[C@@H]1NC(=O)[C@H](CC(C)C)N(C)C(=O)C[C@@H](C)NC(=O)[C@H](C(C)C)N(C)C(=O)C2(CCCC2)NC(=O)[C@H](CC(=O)N2CCC(F)(F)CC2)N(C)C(=O)[C@H](CCc2ccc(C(F)(F)F)c(Cl)c2)NC(=O)CN(C)C(=O)[C@H](CC2CCCCC2)N(C)C(=O)CN(C)C(=O)CN(C)C1=O [Compound 452] (cyclo([Ac5c][NMeV][d(β3hA)][NMeL]I[Sar][Sar][NMeCha][Sar][hPhe(3-Cl-4-CF3)][NMeD](N(CH2CH2)2CF2))) | 80
CC[C@H](C)[C@@H]1NC(=O)[C@H](CC(C)C)N(C)C(=O)C[C@@H](C(=O)N2CCCC2)NC(=O)[C@H]([C@@H](C)CC)N(C)C(=O)C2(CCCC2)NC(=O)[C@@H]2CCCN2C(=O)[C@H](CCc2ccc(C(F)(F)F)c(Cl)c2)NC(=O)CN(C)C(=O)[C@H](CC2CCCCC2)N(C)C(=O)[C@@H]2CCN2C(=O)[C@H](C)N(C)C1=O [Compound 453] ([NMeL]I[NMeA][Aze][NMeCha][Sar][hPhe(3-Cl-4-CF3)]P[Ac5c][NMeI]D-Pyrrolidide; lactam N-11) | 17
CC[C@H](C)[C@@H]1NC(=O)[C@H](CC2CCC2)N(C)C(=O)C[C@@H](C)NC(=O)[C@H](C(C)C)N(C)C(=O)C2(CCCC2)NC(=O)[C@@H]2CCCN2C(=O)[C@H](CCc2ccc(C(F)(F)F)c(Cl)c2)NC(=O)CN(C)C(=O)[C@H](CC2CCCCC2)N(C)C(=O)[C@@H]2CCN2C(=O)[C@H](C)N(C)C1=O [Compound 455] (cyclo([Ac5c][NMeV][d(β3hA)][NMeCba]I[NMeA][Aze][NMeCha][Sar][hPhe(3-Cl-4-CF3)]P)) | 59
CC[C@H](C)[C@@H]1NC(=O)[C@H](CC(C)C)N(C)C(=O)C[C@@H](C)N(C)C(=O)[C@H]([C@@H](C)CC)N(C)C(=O)C2(CCC2)NC(=O)[C@@H]2CC(F)(F)CN2C(=O)[C@H](CCc2ccc(C(F)(F)F)c(Cl)c2)NC(=O)CN(C)C(=O)[C@H](Cc2ccc(C(F)(F)F)cc2)N(C)C(=O)[C@@H]2CCN2C(=O)[C@H](C)N(C)C1=O [Compound 462] (cyclo([Ac4c][NMeI][NMedβ3hAla][NMeL]I[NMeA][Aze][NMePhe(4-CF3)][Sar][hPhe(3-Cl-4-CF3)][Pro(4,4-F2)])) | 12
CC[C@H](C)[C@@H]1NC(=O)[C@H](C)N(C)C(=O)C[C@@H](C)NC(=O)[C@H](C2CCCC2)N(C)C(=O)C2(CCCC2)NC(=O)[C@@H]2CCCN2C(=O)[C@H](CCc2ccc(C(F)(F)F)c(Cl)c2)NC(=O)[C@@H](C)N(C)C(=O)[C@H](Cc2ccccc2Cl)N(C)C(=O)[C@@H]2CCN2C(=O)[C@H](C)N(C)C1=O [Compound 464] (cyclo([Ac5c][NMeGly(cPent)][d(β3hA)][NMeA]I[NMeA][Aze][NMePhe(2-Cl)][dNMeA][hPhe(3-Cl-4-CF3)]P)) | 130
